ChEMBL document CHEMBL4699634, “Series of Novel and Highly Potent Cyclic Peptide PCSK9 Inhibitors Derived from an mRNA Display Screen and Optimized via Structure-Based Design” (J Med Chem, 2020)
Numbered stars: 1 amine (or outer) side, 2 acyl side, 3 side chain; on linkers, the order of the positions; unused ones are H or OH. Bridge positions count the residues as written; N and C are the ends. Square brackets hold non-standard residues; d marks the D form. Peptide text beside a SMILES is read from it. * marks the point of attachment. Trp(5-F) = N[C@@H](Cc1c[nH]c2ccc(F)cc12)C(=O)O; X3 = O=C(CCSCc1cc(F)cc(CSCCN[*:1])c1)[*:2]; Nle(6-COOH) = N[C@@H](CCCCC(=O)O)C(=O)O; X1 = O=C(CCSCc1cccc(CSCCN[*:1])c1)[*:2]; mXylylene = c1cc(C[*:1])cc(C[*:2])c1; Asu = N[C@@H](CCCCCC(=O)O)C(=O)O; PEG4 = NCCOCCOCCOCCOCCC(=O)O; αMeP = C[C@@]1(C(=O)O)CCCN1; Orn = NCCC[C@H](N)C(=O)O; X2 = COCCOCCOCCOCCC(=O)*; Nva = CCC[C@H](N)C(=O)O; Mpa = O=C(O)CCS

Assays:
[1] = target: Chymotrypsin-like elastase family member 1 (Sus scrofa, UniProt P00772); assay: Enzymatic stability assessed as porcine type 4 pancreatic elastase-mediated compound hydrolysis by measuring parent compound remaining at 100 uM incubated for 1 hr by LC-MS/MS analysis; type: ADME; details: pig, read-out: Stabilty
[2] = Enzymatic stability assessed as bovine pancreatic trypsin-mediated compound hydrolysis by measuring parent compound remaining at 100 uM incubated for 1 hr by LC-MS/MS analysis; type: ADME, Bos taurus; details: cattle, read-out: Stabilty
[3] = Half life in cynomolgus monkey whole blood at 100 uM by LC-MS/MS analysis; type: ADME, tissue-based, Macaca fascicularis
[4] = Half life in C57BL/6 mouse whole blood at 100 uM by LC-MS/MS analysis; type: ADME, tissue-based
[5] = target: Chymotrypsinogen A (Bos taurus, UniProt P00766); assay: Enzymatic stability assessed as bovine pancreatic alpha-chymotrypsin-mediated compound hydrolysis by measuring parent compound remaining at 100 uM incubated for 1 hr by LC-MS/MS analysis; type: ADME; details: cattle, read-out: Stabilty
[6] = target: Proprotein convertase subtilisin/kexin type 9 (Homo sapiens, UniProt Q8NBP7); assay: Inhibition of AlexaFluor647-tagged cyclic peptide binding to avi-tagged-biotinylated human PCSK9 measured after 2 hrs by Lance Streptavidin Europium based FRET assay
[7] = Enzymatic stability assessed as porcine pepsin-mediated compound hydrolysis by measuring parent compound remaining at 100 uM incubated for 1 hr by LC-MS/MS analysis; type: ADME, Sus scrofa; details: pig, read-out: Stabilty
[8] = Cytotoxicity against Wistar rat isolated peritoneal cells assessed as reduction in cell viability up to 60 uM measured after 30 mins; type: cell-based; details: peritoneal macrophage cell, 0.5 h
[9] = Induction of mast cell degranulation in Wistar rat isolated peritoneal cells assessed as effect on histamine release measured after 30 mins; type: tissue-based
[10] = Half life in C57BL/6 mouse at 1 mg/kg, iv by LC-MS/MS analysis; type: ADME, organism-based; details: in vivo
[11] = Protein binding in mouse plasma at 2.5 uM measured after 4 hrs by equilibrium dialysis based LC-MS/MS analysis; type: ADME, cell-free; details: read-out: PPB (converted)
[12] = AUC (0 to X) in C57BL/6 mouse at 1 mg/kg, iv by LC-MS/MS analysis; type: ADME, organism-based; set-up: dose 1 mg/kg; details: in vivo
[13] = Volume of distribution at steady state in C57BL/6 mouse at 1 mg/kg, iv by LC-MS/MS analysis; type: ADME, organism-based; details: in vivo, read-out: Vdss
[14] = AUC (0 to infinity) in C57BL/6 mouse at 1 mg/kg, iv by LC-MS/MS analysis; type: ADME, organism-based; set-up: route intravenous, time infinity, dose 1 mg/kg; details: mouse, in vivo
[15] = target: PCSK9/LDLR (Homo sapiens, UniProt Q8NBP7); assay: Inhibition of avi-tagged-biotinylated human PCSK9 interaction with His-tagged human LDLR EGFa domain by LANCE Ulight Streptavidin based TR-FRET assay; type: protein assay
[16] = Rattus norvegicus, Wistar, Mast cell, 0.5 h, read-out: EC50

Sequence of PCSK9/LDLR (Q8NBP7 31-152 limits assumed): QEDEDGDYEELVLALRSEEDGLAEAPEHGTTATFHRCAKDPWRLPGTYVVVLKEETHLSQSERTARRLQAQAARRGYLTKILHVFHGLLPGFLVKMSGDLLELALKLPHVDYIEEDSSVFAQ
Sequence of PCSK9/LDLR (Q8NBP7 153-692 limits assumed): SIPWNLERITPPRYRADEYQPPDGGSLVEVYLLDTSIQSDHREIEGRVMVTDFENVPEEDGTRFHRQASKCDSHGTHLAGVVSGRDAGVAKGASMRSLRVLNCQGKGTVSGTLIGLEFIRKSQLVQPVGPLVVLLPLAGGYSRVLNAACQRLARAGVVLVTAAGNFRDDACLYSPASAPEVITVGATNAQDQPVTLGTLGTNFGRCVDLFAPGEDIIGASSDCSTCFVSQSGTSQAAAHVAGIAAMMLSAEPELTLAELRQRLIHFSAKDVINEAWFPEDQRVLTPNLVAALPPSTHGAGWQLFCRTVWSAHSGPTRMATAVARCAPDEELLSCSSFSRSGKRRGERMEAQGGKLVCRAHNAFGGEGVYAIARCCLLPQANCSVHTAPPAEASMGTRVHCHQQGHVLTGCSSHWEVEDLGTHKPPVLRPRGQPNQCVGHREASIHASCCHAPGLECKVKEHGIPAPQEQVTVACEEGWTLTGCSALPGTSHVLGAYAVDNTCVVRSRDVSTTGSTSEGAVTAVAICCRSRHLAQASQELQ
Sequence of PCSK9/LDLR (P01130 22-860 partner limits assumed): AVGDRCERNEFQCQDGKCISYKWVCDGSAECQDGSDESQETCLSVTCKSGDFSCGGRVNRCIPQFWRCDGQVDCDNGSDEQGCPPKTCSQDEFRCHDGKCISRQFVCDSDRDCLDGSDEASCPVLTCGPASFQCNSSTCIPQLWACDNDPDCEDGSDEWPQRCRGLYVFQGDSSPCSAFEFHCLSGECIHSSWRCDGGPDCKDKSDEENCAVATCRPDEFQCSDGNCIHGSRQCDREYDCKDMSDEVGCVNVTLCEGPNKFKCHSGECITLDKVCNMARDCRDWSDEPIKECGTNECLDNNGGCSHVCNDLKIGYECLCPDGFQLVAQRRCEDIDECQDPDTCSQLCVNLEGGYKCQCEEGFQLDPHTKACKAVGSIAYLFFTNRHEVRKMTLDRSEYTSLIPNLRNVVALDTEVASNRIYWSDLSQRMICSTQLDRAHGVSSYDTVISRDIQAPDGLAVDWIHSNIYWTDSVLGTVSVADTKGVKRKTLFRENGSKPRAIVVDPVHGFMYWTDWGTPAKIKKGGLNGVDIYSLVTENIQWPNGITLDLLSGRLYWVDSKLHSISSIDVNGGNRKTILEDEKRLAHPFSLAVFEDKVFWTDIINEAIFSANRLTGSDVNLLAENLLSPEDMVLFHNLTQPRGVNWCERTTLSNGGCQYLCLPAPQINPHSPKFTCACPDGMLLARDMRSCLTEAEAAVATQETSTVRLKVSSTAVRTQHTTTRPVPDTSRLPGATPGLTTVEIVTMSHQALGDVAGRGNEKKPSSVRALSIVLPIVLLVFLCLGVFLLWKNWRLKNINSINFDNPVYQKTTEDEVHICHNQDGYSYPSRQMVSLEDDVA
Sequence of Proprotein convertase subtilisin/kexin type 9 (Q8NBP7 31-152 limits assumed): as the sequence (Q8NBP7 31-152 limits assumed) above
Sequence of Proprotein convertase subtilisin/kexin type 9 (Q8NBP7 153-692 limits assumed): as the sequence (Q8NBP7 153-692 limits assumed) above
Sequence of Chymotrypsin-like elastase family member 1 (P00772 whole entry): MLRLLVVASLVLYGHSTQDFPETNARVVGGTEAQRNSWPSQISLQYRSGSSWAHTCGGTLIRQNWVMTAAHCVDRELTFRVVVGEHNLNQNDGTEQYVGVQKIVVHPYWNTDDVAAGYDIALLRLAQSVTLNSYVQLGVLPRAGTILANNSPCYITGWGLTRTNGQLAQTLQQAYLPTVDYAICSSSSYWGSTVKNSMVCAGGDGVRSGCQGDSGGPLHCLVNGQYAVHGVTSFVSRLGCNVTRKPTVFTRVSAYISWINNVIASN

Compound | remaining at 1 h, 100 µM [1] [%] | remaining at 1 h, 100 µM [2] [%] | half-life at 100 µM [4] [h] | remaining at 1 h, 100 µM [5] [%] | Ki [6] [nM] | remaining at 1 h, 100 µM [7] [%] | Activity [8] | EC50 ([9]; mast cell) | Ki [15] [nM] | also measured
COc1ccc(C[C@@H]2NC(=O)[C@H]([C@@H](C)OC)NC(=O)[C@@H]3CCC(=O)NCc4cccc(c4)C[C@H](NC(=O)[C@@H](C)NC(=O)[C@H](C)NC(=O)CCSCc4cccc(c4)CSCCNC(=O)[C@]4(C)CCCN4C2=O)C(=O)N[C@@H](Cc2c[nH]c4ccc(F)cc24)C(=O)N3C)cc1 | 98.8 | 97.6 | > 6 | 95.7 | 10.6 | 94.4 | – | – | – | half-life at 100 µM [3]: > 6 h
COc1ccc(C[C@@H]2NC(=O)[C@H](Cc3cnc[nH]3)NC(=O)[C@H](CC(=O)O)NC(=O)[C@H](Cc3c[nH]c4ccc(F)cc34)NC(=O)[C@H](Cc3c[nH]c4ccc(F)cc34)NC(=O)[C@@H](C)NC(=O)[C@H](CNC(=O)COCCOCCN)NC(=O)CCSCc3cccc(c3)CSCCNC(=O)[C@]3(C)CCCN3C2=O)cc1 | – | – | – | – | 8.2 | – | Non-Toxic | Non-Toxic | – | –
COc1ccc(C[C@@H]2NC(=O)[C@H](Cc3cnc[nH]3)NC(=O)[C@H](CC(=O)O)NC(=O)[C@H](Cc3c[nH]c4ccc(F)cc34)NC(=O)[C@H](Cc3c[nH]c4ccc(F)cc34)NC(=O)[C@@H](C)NC(=O)[C@H](CCCCN(C)C)NC(=O)CCSCc3cccc(c3)CSCCNC(=O)[C@]3(C)CCCN3C2=O)cc1 | – | – | – | – | 4.2 | – | Non-Toxic | – | – | EC50 [9, 16]: 10000 nM
C[C@H]1NC(=O)[C@H](CCCCN)NC(=O)CCSCc2cccc(c2)CSC[C@@H](C(N)=O)NC(=O)[C@]2(C)CCCN2C(=O)[C@H](Cc2ccc(O)cc2)NC(=O)[C@H]([C@@H](C)O)NC(=O)[C@@H]2C[C@H](F)CN2C(=O)[C@H](Cc2c[nH]c3ccc(F)cc23)NC(=O)[C@H](Cc2c[nH]c3ccc(F)cc23)NC1=O | 100 | 95.9 | > 6 | 100 | 2.1 | 98.1 | Non-Toxic | – | – | half-life [10]: 1.6 h; fraction unbound at 4 h, 2.5 µM [11]: 0.0167; AUC [12]: 0.171 µM·h; Vd [13]: 0.37 L/kg; AUC [14]: 0.17152 µM·h; EC50 [9, 16]: 3120 nM
C[C@H]1NC(=O)[C@H](CCC(=O)O)NC(=O)CCSCc2cccc(c2)CSCCNC(=O)[C@]2(C)CCCN2C(=O)[C@H](Cc2ccc(O)cc2)NC(=O)[C@H](Cc2cnc[nH]2)NC(=O)[C@H](CC(=O)O)NC(=O)[C@H](Cc2c[nH]c3ccc(F)cc23)NC(=O)[C@H](Cc2c[nH]c3ccc(F)cc23)NC1=O | – | – | – | – | – | – | Non-Toxic | – | 202 | EC50 [9, 16]: 1000 nM
COc1ccc(C[C@@H]2NC(=O)[C@H](Cc3cnc[nH]3)NC(=O)[C@H](CC(=O)O)NC(=O)[C@H](Cc3c[nH]c4ccc(F)cc34)NC(=O)[C@H](Cc3c[nH]c4ccc(F)cc34)NC(=O)[C@@H](C)NC(=O)[C@H](CCCCO)NC(=O)CCSCc3cccc(c3)CSCCNC(=O)[C@]3(C)CCCN3C2=O)cc1 | – | – | – | – | 39 | – | Non-Toxic | Non-Toxic | 78.9 | –
C[C@@]12CCCN1C(=O)[C@H](Cc1ccc(O)cc1)NC(=O)[C@H](Cc1cnc[nH]1)NC(=O)[C@H](CC(=O)O)NC(=O)[C@H](Cc1c[nH]c3ccc(F)cc13)NC(=O)[C@H](Cc1c[nH]c3ccc(F)cc13)NC(=O)CNC(=O)[C@H](CCCCNC(=O)CCOCCOCCOCCOCCN)NC(=O)CCSCc1cccc(c1)CSC[C@@H](C(N)=O)NC2=O ([Mpa]K(PEG4)G[Trp(5-F)][Trp(5-F)]DHY[αMeP]C-NH2; linker 1-10 via mXylylene) | – | – | – | – | 10.7 | – | Non-Toxic | Non-Toxic | – | –
COCCOCCOCCOCCC(=O)NCCCC[C@@H]1NC(=O)CCSCc2cccc(c2)CSC[C@@H](C(N)=O)NC(=O)[C@]2(C)CCCN2C(=O)[C@H](Cc2ccc(O)cc2)NC(=O)[C@H](Cc2cnc[nH]2)NC(=O)[C@H](CC(=O)O)NC(=O)[C@H](Cc2c[nH]c3ccc(F)cc23)NC(=O)[C@H](Cc2c[nH]c3ccc(F)cc23)NC(=O)CNC1=O ([Mpa]K(X2)G[Trp(5-F)][Trp(5-F)]DHY[αMeP]C-NH2; linker 1-10 via mXylylene) | 96.3 | 96 | > 6 | 39.5 | 9.4 | 98.6 | Non-Toxic | Non-Toxic | – | –
CO[C@H](C)[C@@H]1NC(=O)[C@@H]2CCCN2C(=O)[C@H](Cc2c[nH]c3ccc(F)cc23)NC(=O)[C@H](Cc2c[nH]c3ccc(F)cc23)NC(=O)CNC(=O)[C@H](CCCCN)NC(=O)CCSCc2cccc(c2)CSC[C@@H](C(N)=O)NC(=O)[C@]2(C)CCCN2C(=O)[C@H](Cc2ccc(O)cc2)NC1=O ([Mpa]KG[Trp(5-F)][Trp(5-F)]PT(Me)Y[αMeP]C-NH2; linker 1-10 via mXylylene) | 56 | 1.2 | 1.03 | 91 | 10.1 | 99.5 | – | – | – | half-life at 100 µM [3]: 3.1 h
CCC[C@@H]1NC(=O)CCSCc2cccc(c2)CSC[C@@H](C(N)=O)NC(=O)[C@]2(C)CCCN2C(=O)[C@H](Cc2ccc(O)cc2)NC(=O)[C@H](Cc2cnc[nH]2)NC(=O)[C@H](CC(=O)O)NC(=O)[C@H](Cc2c[nH]c3ccc(F)cc23)NC(=O)[C@H](Cc2c[nH]c3ccc(F)cc23)NC(=O)CNC1=O ([Mpa][Nva]G[Trp(5-F)][Trp(5-F)]DHY[αMeP]C-NH2; linker 1-10 via mXylylene) | – | – | – | – | 35.2 | – | Non-Toxic | – | 94.7 | EC50 [9, 16]: 7000 nM
C[C@@]12CCCN1C(=O)[C@H](Cc1ccc(O)cc1)NC(=O)[C@H](Cc1cnc[nH]1)NC(=O)[C@H](CC(=O)O)NC(=O)[C@H](Cc1c[nH]c3ccc(F)cc13)NC(=O)[C@H](Cc1c[nH]c3ccc(F)cc13)NC(=O)CNC(=O)[C@H](CCCN)NC(=O)CCSCc1cccc(c1)CSC[C@@H](C(N)=O)NC2=O ([Mpa][Orn]G[Trp(5-F)][Trp(5-F)]DHY[αMeP]C-NH2; linker 1-10 via mXylylene) | – | – | – | – | 14.3 | – | Non-Toxic | Non-Toxic | 132 | –
COc1ccc(C[C@@H]2NC(=O)[C@H](Cc3cnc[nH]3)NC(=O)[C@H](CC(=O)O)NC(=O)[C@H](Cc3c[nH]c4ccc(F)cc34)NC(=O)[C@H](Cc3c[nH]c4ccc(F)cc34)NC(=O)[C@@H](C)NC(=O)[C@H](CCCCC(=O)O)NC(=O)CCSCc3cccc(c3)CSCCNC(=O)[C@]3(C)CCCN3C2=O)cc1 (cyclo(DHY(Me)[αMeP][X1][Nle(6-COOH)][dA][Trp(5-F)][Trp(5-F)])) | – | – | – | – | 85.8 | – | Non-Toxic | Non-Toxic | – | –
C[C@@]12CCCN1C(=O)[C@H](Cc1ccc(O)cc1)NC(=O)[C@H](Cc1cnc[nH]1)NC(=O)[C@H](CC(=O)O)NC(=O)[C@H](Cc1c[nH]c3ccc(F)cc13)NC(=O)[C@H](Cc1c[nH]c3ccc(F)cc13)NC(=O)CNC(=O)[C@H](CCCCN)NC(=O)CCSCc1cccc(c1)CSCCNC2=O (cyclo(DHY[αMeP][X1]KG[Trp(5-F)][Trp(5-F)])) | 46.1 | 0.8 | 5.56 | 7.4 | 4.3 | 99.1 | – | – | 26.6 | –
C[C@H]1NC(=O)[C@H](CCCCN)NC(=O)CCSCc2cc(F)cc(c2)CSCCNC(=O)[C@]2(C)CCCN2C(=O)[C@H](Cc2ccc(O)cc2)NC(=O)[C@H](Cc2cnc[nH]2)NC(=O)[C@H](CC(=O)O)NC(=O)[C@H](Cc2c[nH]c3ccc(F)cc23)NC(=O)[C@H](Cc2c[nH]c3ccc(F)cc23)NC1=O (cyclo(DHY[αMeP][X3]K[dA][Trp(5-F)][Trp(5-F)])) | 96.5 | 91 | > 6 | 20.1 | 1.5 | 96.6 | – | – | – | half-life at 100 µM [3]: > 6 h
COc1ccc(C[C@@H]2NC(=O)[C@H](Cc3cnc[nH]3)NC(=O)[C@H](CC(=O)O)NC(=O)[C@H](Cc3c[nH]c4ccc(F)cc34)NC(=O)[C@H](Cc3c[nH]c4ccc(F)cc34)NC(=O)[C@@H](C)NC(=O)[C@H](CCCCCC(=O)O)NC(=O)CCSCc3cccc(c3)CSCCNC(=O)[C@]3(C)CCCN3C2=O)cc1 (cyclo([Asu][dA][Trp(5-F)][Trp(5-F)]DHY(Me)[αMeP][X1])) | – | – | – | – | 80.7 | – | Non-Toxic | Non-Toxic | – | –
